These molecules were tested against MNK2a (Homo sapiens (Human), UniProt Q9HBH9) (assay: MNK2a in vitro kinase assay (Assay 2), ADP-Glo). Conditions: read-out: MNK2 IC50.
Assay type: biochemical
Protocol: B. MNK2a In vitro Kinase Assay (Assay 2)
ASSAY SETUP: The inhibition of kinase activity of MNK2a was assessed using pre-activated GST-MNK2a. The white, 384-well OptiPlate F plates were purchased from PerkinElmer. The ADP-Glo Kinase Assay (including ultra pure ATP) was purchased from Promega (V9103). Activated MNK2a was obtained as described in WO2011/104340. […] ID No. 5 of WO 2011/104340 by the C-terminal —CONH2 group, was purchased from Thermo Fisher Scientific. All other materials were of highest grade commercially available. Compounds are tested in either serial dilutions or single dose concentrations. The compound stock solutions are 10 mM in 100% DMSO The serial compound dilutions are prepared in 100% DMSO followed by 1:27.3 intermediate dilution in assay buffer. The final DMSO concentration in assay will be <3%. In the 384-well plates 3 μl of test compound from the intermediate dilution is mixed with 4 μl of the activated MNK2 enzyme (final concentration of 10 nM) and 4 μl of the peptide (final concentration of 25 μM)/ultra pure ATP (final concentration of 20 μM), all dissolved in assay buffer. This step is followed by an incubation time of 90 min, then 10 μl of ADP Glo reagent are added, followed by 40 min of incubation. Then 20 μl of kinase detection reagent are admixed. The plates are sealed and after an incubation period of 30 min, the luminescence signal is measured in an Envision reader to determine the amount of produced ADP. All incubation steps are performed at room temperature. The assay buffer consists of 20 mM HEPES, 2 mM DTT, 0.01% BSA, 20 mM MgCl2 and 0.1% Pluronic F-127.
The luminescent signal generated is proportional to the ADP concentration produced and is correlated with activated MNK2 activity. The analysis of the data is performed by the calculation of the percentage of ATP consumption of activated MNK2 in the presence of the test compound compared to the consumption of ATP in the presence of activated MNK2 without compound. (RLU(sample)−RLU(low control))*100/(RLU(high value)−RLU(low control)) [RLU=relative luminescence units]
[…] values based on dose response curves are calculated with the AssayExplorer software.

Chain of MNK2a (Q9HBH9 whole entry): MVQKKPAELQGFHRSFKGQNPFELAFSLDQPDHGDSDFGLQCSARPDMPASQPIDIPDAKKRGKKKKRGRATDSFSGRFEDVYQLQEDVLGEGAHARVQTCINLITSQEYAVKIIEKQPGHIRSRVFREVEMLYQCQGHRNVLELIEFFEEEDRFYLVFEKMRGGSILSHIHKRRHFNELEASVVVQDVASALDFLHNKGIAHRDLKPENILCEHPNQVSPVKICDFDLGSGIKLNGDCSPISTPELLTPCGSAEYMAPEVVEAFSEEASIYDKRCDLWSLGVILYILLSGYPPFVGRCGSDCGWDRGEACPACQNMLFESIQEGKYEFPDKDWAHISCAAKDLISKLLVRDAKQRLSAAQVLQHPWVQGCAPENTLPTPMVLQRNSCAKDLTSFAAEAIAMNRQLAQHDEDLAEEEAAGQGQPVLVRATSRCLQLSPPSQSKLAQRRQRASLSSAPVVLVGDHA

SMILES	IC50
Cc1cc(N=S(C)(C)=O)cc2ncnc(Nc3ccc(F)cc3OC(C)C(F)(F)F)c12 (racemic) [Example 1.013]	2 nM
Cc1cc(N=S(C)(C)=O)cc2ncnc(Nc3ccc(C#N)cc3OC(C)C(F)(F)F)c12 (centres unmarked) [Example 1.001]	17 nM
CC(Oc1ncccc1Nc1ncnc2cc(N=S(C)(C)=O)cc(F)c12)C(F)(F)F (centres unmarked) [Example 1.007]	8 nM
Cc1cc(C(Oc2cc(F)ccc2Nc2ncnc3cc(N=S(C)(C)=O)cc(C)c23)C(F)(F)F)on1 (centres unmarked) [Example 1.010]	17 nM
Cc1cc(N=S(C)(C)=O)cc2ncnc(Nc3cccnc3OC(C)C(F)(F)F)c12 (centres unmarked) [Example 1.017]	12 nM
Cc1cc(N=S2(=O)CCCC2)cc2ncnc(Nc3ccc(F)cc3OC(C)C(C)(C)C#N)c12 (centres unmarked) [Example 2.007]	3 nM
Cc1cc(N=S(C)(C)=O)cc2ncnc(Nc3cccnc3O[C@H](C)C(=O)NCC(F)(F)F)c12 [Example 2.013]	2 nM
CC(C)Oc1ncccc1Nc1ncnc2cc(N=S(C)(C)=O)cc(F)c12 [Example 2.015]	190 nM
Cc1cc([C@@H](C)Oc2cc(F)ccc2Nc2ncnc3cc(N=S4(=O)CCNCC4)cc(C)c23)on1 [Example 2.016]	1 nM
Cc1cc(N=S2(=O)CC[C@H](N)C2)cc2ncnc(Nc3ccc(F)cc3O[C@H](C)C(=O)NCC(F)(F)F)c12 (some centres unmarked) [Example 2.019]	1 nM
Cc1cc(N=S2(=O)CC[C@@H](N)C2)cc2ncnc(Nc3ccc(F)cc3O[C@H](C)C(=O)NCC(F)(F)F)c12 (some centres unmarked) [Example 2.020]	3 nM
Cc1cc(N=S2(=O)CCC2)cc2ncnc(Nc3cccnc3O[C@H](C)C(=O)NCC(F)F)c12 [Example 2.021]	2 nM
Cc1cc(N=S2(=O)CCCC2)cc2ncnc(Nc3cccnc3O[C@H](C)C(=O)NCC(F)(F)F)c12 [Example 2.022]	2 nM
Cc1cc(N=S2(=O)CCC(O)C2)cc2ncnc(Nc3ccc(F)cc3O[C@H](C)C(=O)NCC(F)(F)F)c12 (some centres unmarked) [Example 2.023]	2 nM
C[C@@H](Oc1cc(F)ccc1Nc1ncnc2cc(N=S3(=O)CC4(COC4)C3)cc(Cl)c12)C(=O)NCC(F)(F)F [Example 2.024]	3 nM
C[C@@H](Oc1cc(F)ccc1Nc1ncnc2cc(N=S(C)(=O)C3CCOCC3)cc(F)c12)C(=O)NCC(F)(F)F (some centres unmarked) [Example 2.025]	7 nM
C[C@@H](Oc1cc(F)ccc1Nc1ncnc2cc(N=S3(=O)CC(C)(C)C3)cc(F)c12)C(=O)NCC#N [Example 2.026]	1 nM
Cc1cc(N=S(C)(=O)C2CCNC2)cc2ncnc(Nc3ccc(F)cc3O[C@H](C)C(=O)NCC(F)(F)F)c12 (some centres unmarked) [Example 2.028]	3 nM
Cc1cc(N=S(C)(=O)C2CCOCC2)cc2ncnc(Nc3ccc(F)cc3O[C@H](C)C(=O)NCC(F)(F)F)c12 (some centres unmarked) [Example 2.029]	4 nM

SMILES	IC50
COc1cc(N=S(C)(=O)C2CC2)cc2ncnc(Nc3ccc(F)cc3O[C@H](C)C(=O)NCC(F)(F)F)c12 (some centres unmarked) [Example 2.030]	4 nM
C[C@@H](Oc1ncccc1Nc1ncnc2cc(N=S(C)(C)=O)cc(F)c12)C(=O)NCC(F)(F)F [Example 2.031]	10 nM
COC(=O)N1CC2(C1)CS(=O)(=Nc1cc(C)c3c(Nc4ccc(F)cc4O[C@H](C)C(=O)NCC(F)(F)F)ncnc3c1)C2 [Example 2.032]	1 nM
C[C@@H](Oc1cc(F)ccc1Nc1ncnc2cc(N=S3(=O)CCCC3)cc(F)c12)C(=O)NCC#N [Example 2.033]	4 nM
Cc1cc(N=S2(=O)CC(C)(C)C2)cc2ncnc(Nc3ccc(Cl)cc3O[C@H](C)C(=O)N[C@@H](C)C(F)(F)F)c12 [Example 2.034]	1 nM
Cc1cc(N=S2(=O)CCC(C)C2)cc2ncnc(Nc3ccc(F)cc3O[C@H](C)C(=O)NCC(F)(F)F)c12 (some centres unmarked) [Example 2.035]	2 nM
Cc1cc(N=S2(=O)CCC2)cc2ncnc(Nc3ccc(F)cc3O[C@H](CO)CF)c12 [Example 2.036]	4 nM
C[C@@H](Oc1cc(F)ccc1Nc1ncnc2cc(N=S3(=O)CC(C)(C)C3)cc(Cl)c12)C(=O)NCC(F)(F)F [Example 2.037]	2 nM
Cc1cc(N=S2(=O)CC3(COC3)C2)cc2ncnc(Nc3ccc(F)cc3O[C@H](C)C(=O)NCC(F)(F)F)c12 [Example 2.038]	3 nM
Cc1cc(N=S2(=O)CCC2)cc2ncnc(Nc3cccnc3O[C@H](C)C(=O)NCC(F)(F)F)c12 [Example 2.039]	3 nM
C[C@@H](Oc1cc(F)ccc1Nc1ncnc2cc(N=S(C)(=O)C(C)(C)C)cc(F)c12)C(=O)NCC(F)(F)F (some centres unmarked) [Example 2.040]	18 nM
Cc1cc(N=S2(=O)CCC2)cc2ncnc(Nc3ccc(F)cc3O[C@H](C)C(=O)NC(C(F)(F)F)C(F)(F)F)c12 [Example 2.041]	1 nM
Cc1cc(N=S(C)(=O)C2CC2)cc2ncnc(Nc3ccc(F)cc3O[C@H](C)C(=O)NCC(F)(F)F)c12 (some centres unmarked) [Example 2.042]	5 nM
Cc1cc(N=S2(=O)CCC2)cc2ncnc(Nc3ccc(F)cc3O[C@H](CO)C(F)(F)F)c12 [Example 2.043]	2 nM
Cc1cc(N=S2(=O)CC(C)(C)C2)cc2ncnc(Nc3ccc(F)cc3O[C@H](C)C(=O)NCC(F)(F)F)c12 [Example 2.044]	1 nM
Cc1cc(N=S2(=O)CC3(COC3)C2)cc2ncnc(Nc3ccc(Cl)cc3O[C@H](C)C(=O)N[C@@H](C)C(F)(F)F)c12 [Example 2.045]	1 nM
Cc1cc(N=S(C)(=O)C(C)C)cc2ncnc(Nc3ccc(F)cc3O[C@H](C)C(=O)NCC(F)(F)F)c12 (some centres unmarked) [Example 2.046]	3 nM
COc1cc(N=S2(=O)CCC2)cc2ncnc(Nc3ccc(F)cc3O[C@H](C)C(=O)NCC(F)(F)F)c12 [Example 2.047]	3 nM

Second part, the molecule after the results:

IC50	SMILES
17 nM	Cc1cc(N=S(C)(C)=O)cc2ncnc(Nc3ccc(F)cc3OC(C)Cn3ccnc3)c12 (centres unmarked) [Example 3.004]
1 nM	Cc1cc(N=S(C)(C)=O)cc2ncnc(Nc3ccc(F)cc3OCC#N)c12 [Example 3.005]
23 nM	Cc1cc(N=S(C)(C)=O)cc2ncnc(Nc3ccc(F)cc3OC(C)C3CCCO3)c12 (centres unmarked) [Example 3.010]
2 nM	COc1cc(N=S2(=O)CCCC2)cc2ncnc(Nc3ccc(F)cc3O[C@H](C)C(=O)NCC(F)(F)F)c12 [Example 3.011]
138 nM	CCC(Oc1cc(F)ccc1Nc1ncnc2cc(N=S(C)(C)=O)cc(C)c12)C(=O)OC (centres unmarked) [Example 3.017]
42 nM	Cc1cc(N=S(C)(C)=O)cc2ncnc(Nc3ccc(F)cc3OC(C)c3ccnn3C)c12 (centres unmarked) [Example 3.023]
16 nM	Cc1cc(N=S(C)(C)=O)cc2ncnc(Nc3ccc(F)cc3O[C@@H](C)CN)c12 [Example 3.024]
58 nM	Cc1cc(N=S(C)(C)=O)cc2ncnc(Nc3ccc(F)cc3OC(C)Cn3cccn3)c12 (centres unmarked) [Example 3.034]
9 nM	Cc1noc(C(C)Oc2cc(F)ccc2Nc2ncnc3cc(N=S(C)(C)=O)cc(C)c23)n1 (centres unmarked) [Example 3.036]
3 nM	Cc1cc(N=S(C)(C)=O)cc2ncnc(Nc3ccc(F)cc3OCC3CNC(=O)C3)c12 (centres unmarked) [Example 3.037]
6 nM	COc1cc(N=S(C)(C)=O)cc2ncnc(Nc3ccc(F)cc3O[C@H](C)C(=O)NCC(F)(F)F)c12 [Example 3.040]
33 nM	Cc1nnc(C(C)Oc2cc(F)ccc2Nc2ncnc3cc(N=S(C)(C)=O)cc(C)c23)o1 (centres unmarked) [Example 3.041]
3 nM	Cc1cc(N=S(C)(C)=O)cc2ncnc(Nc3ccc(F)cc3O[C@H](C)C(=O)N[C@H](C)C(F)(F)F)c12 [Example 3.051]
3 nM	Cc1cc(N=S2(=O)CCC2)cc2ncnc(Nc3ccc(F)cc3O[C@H](C)C(=O)N(CC(F)(F)F)CC(F)(F)F)c12 [Example 3.052]
2 nM	Cc1cc(N=S(C)(C)=O)cc2ncnc(Nc3ccc(F)cc3O[C@H](C)C(=O)N(CC(F)F)CC(F)F)c12 [Example 3.053]
3 nM	Cc1cc(N=S(C)(C)=O)cc2ncnc(Nc3ccc(F)cc3O[C@H](C)C(=O)N(CC(F)(F)F)CC(F)(F)F)c12 [Example 3.055]
6 nM	Cc1cc(N=S2(=O)CCCC2)cc2ncnc(Nc3ccc(F)cc3O[C@H](C)C(=O)N3CC[S+]([O-])CC3)c12 [Example 4.004]
5 nM	Cc1cc(N=S2(=O)CCCC2)cc2ncnc(Nc3ccc(F)cc3O[C@H](C)C(=O)N3CCCC3)c12 [Example 4.006]
2 nM	Cc1cc(N=S2(=O)CCCC2)cc2ncnc(Nc3ccc(F)cc3O[C@H](C)C(=O)NCC#N)c12 [Example 4.007]
20 nM	Cc1cc(N=S(C)(C)=O)cc2ncnc(Nc3ccc(F)cc3O[C@H](C)C(=O)N3CCCC3)c12 [Example 4.016]
3 nM	CCN(CC)C(=O)[C@@H](C)Oc1cc(F)ccc1Nc1ncnc2cc(N=S3(=O)CCCC3)cc(C)c12 [Example 4.025]
3 nM	Cc1cc(N=S2(=O)CCCC2)cc2ncnc(Nc3ccc(F)cc3O[C@H](C)C(=O)N(C)C3CCCC3)c12 [Example 4.026]
